Data from patent publication US20070135437A1, “Modulation of neurodegenerative diseases” (ALSGEN, INC., priority 2005, published 2007).

Key:
Assay type in all cases: cell-based, human
[1] = test system: hSOD-1 protein levels in HeLa cells; test: SOD-1 ELISA on lysates of HeLa cells after 72 h incubation with compound
Procedure: Briefly, cells were maintained in Dulbecco's Minimal Essential Medium, with high glucose, supplemented with glutamine, 4 mM, certified fetal bovine serum, 10%, and penicillin, streptomycin, and nystatin (all from Invitrogen). Incubation conditions were 37 degrees and 99% relative humidity, with CO2 at 5%. Cultures were passaged when they reached 90% confluence. For pharmacological experiments, cells were plated into sterile tissue culture treated 96 well plates at a density of 3,500 cells/well in 150 μl medium. After plating and 6 hours for attachment, drugs were added to the medium in a concentration of 10 μM. Following 72 hours of incubation with the drugs, the cells were photographed at 100× using an inverted microscope and digital camera, so that cytotoxicity could be evaluated. After photodocumentation, the medium was removed and the cells were washed once with phosphate buffered saline, and then 50-100 μl molecular biology grade water containing a protease inhibitor cocktail was added. After 10 min incubation, the plates were placed in −80 degrees to induce complete lysis. Plates were then thawed and 4-25 μl was transferred from each well into a maxsorp ELISA plate coated with anti-human SOD-1 antibody, which contained 75-100 μl phosphate buffered saline or blocking buffer. A second antibody pair (a polyclonal anti-SOD-1/HRP conjugated goat anti-rabbit) was then added to the well, and incubation was conducted for 1 hour at room temperature. At the conclusion of the incubation, the plate was washed three times (wash buffer from KPL Inc.) and Sure Blue Reserve HRP Substrate was added. Following a 5-10 min incubation, the reaction (which had turned blue to varying degrees) was stopped by the addition of a stop reagent (KPL). The plate was then shaken gently for 5 seconds and the absorbance at 450 nm read on a Tecan Plate reader. Absorbance from each sample were compared to standard curve of purified recombinant human SOD-1 assayed on the same ELISA plate, and SOD-1 immunoreactivity (ng/ml) was estimated by comparison with the standard curve. This example describes how to examine the in vitro effects of the antimalarial drug, pyrimethamine, as well as the compounds listed in Tables 1 through 5, on SOD-1 activity. The human cervical carcinoma derived HeLa cell line (ATCC) were cultured in Dulbecco's Minimal Essential Medium, with high glucose, supplemented with glutamine, 4 mM, certified fetal bovine serum, 10%, and penicillin, streptomycin, and nystatin (all from Invitrogen). Incubation conditions were 37° C. and 99% relative humidity, with CO2 at 5%. Cultures were passaged when they reached 90% confluence. For pharmacological experiments, cells were plated into sterile tissue culture treated 96 well plates at a density of 3,500 cells/well in 150 μl medium. Following 72 hours of incubation with each of the compounds, the cells were photographed and processed as described in Example 1 (iii). The total protein of the lysates was determined by Bradford assay as described in Example 1 (iv).

HeLa cells = test: Bradford total protein assay of HeLa lysates (check for cytotoxic effects); conditions: 72 hours
Procedure: To determine if decrements found in the SOD-1 assay were simply the result of cytotoxic effects of the drug treatment, total protein was determined for each well. While the ELISA incubation was ongoing, 10 μl of the remaining lysate was removed from each well and placed into another empty plate, and BioRad Bradford reagent (100 μl) was added to the protein. After a 15 min incubation at room temperature the plate was shaken gently for 5 seconds and the absorbance was read at 595 nm in a Tecan Sunrise plate reader. Protein concentrations in each well were thus determined by comparison with protein standards that were run on the same plate.
Following 72 hours of incubation with each of the compounds, the cells were photographed and processed as described in Example 1 (iii). The total protein of the lysates was determined by Bradford assay as described in Example 1 (iv). […] This reduction was dose related and maximal by 10 μM, with an IC50 of less than 3 μM. […] The biological activity results recorded in Tables 1B, 2, 3, 4, and 5 show the % reduction of hSOD-1 protein levels in HeLa cells following 72 h treatment with 10 μM of each compound.

[2] = test system: hSOD-1 protein levels in HeLa cells; test: SOD-1 ELISA on lysates of HeLa cells after 72 h incubation with compound; conditions: 72 hours before harvest, FIG. 1, read-out: IC50 for reduction of SOD-1 protein
[3] = Table 1B, % reduction of hSOD-1 protein levels in HeLa cells, 72 h treatment, 10 μM
[4] = Table 5 heterocyclic amides, % reduction of hSOD-1 protein levels in HeLa cells following 72 h treatment with 10 μM compound
[5] = Table 2, % reduction of hSOD-1 protein levels in HeLa cells, 72 h treatment, 10 μM

Row | Compound | Biological Activity (% inhibition at 10 μM) [1, 3] [%] | further results
1 | COc1ccc(-c2cc(O)ncn2)cc1OC [Compound 89] | 84 | 
2 | Cc1nc(N)nc(N)c1-c1ccc(Cl)c(Cl)c1 [Compound 112] | 36 | 
3 | Cc1nc(N)nc(N)c1C=Cc1ccccc1 [Compound 109] | 38 | 
4 | CC(Oc1ccc(Cl)cc1)c1ccnc(N)n1 (stereo not drawn) [Compound 22] | 84 | 
5 | COc1ccc(Cc2cnc(N)nc2N)cc1OC [Compound 102] | 64 | 
6 | Cc1cc(O)nc(SCc2ccc(Cl)cc2Cl)n1 [Compound 114] | 35 | 
7 | Cc1ccc(C(=O)Nc2ncccc2Cl)cc1 [Compound 197] |  | Biological Activity (% inhibition at 10 μM) [1, 4]: 74%
8 | Oc1ccnc(SCc2c(F)cccc2Cl)n1 [Compound 101] | 65 | 
9 | COc1ccc(Cc2c(Cl)nc(SC)nc2Cl)cc1 [Compound 12] | 40 | 
10 | COc1ccc(Cc2c(C)nc(N)nc2O)cc1 [Compound 98] | 67 | 
11 | Cc1cnc(SCc2ccccc2Cl)nc1O [Compound 5] | 79 | 
12 | Nc1ccc(C(=O)Nc2ncccn2)cc1 [Compound 194] |  | Biological Activity (% inhibition at 10 μM) [1, 4]: 92%
13 | CCCCNc1nc(N)nc(-c2cc(Cl)ccc2O)n1 [Compound 170] |  | Biological Activity (% inhibition at 10 μM) [1, 5]: 99%
14 | CCCNc1nc(N)nc(-c2cc(Cl)ccc2OC)n1 [Compound 191] |  | Biological Activity (% inhibition at 10 μM) [1, 5]: 32%
15 | CNc1nc(N)nc(-c2cc(Cl)ccc2OC)n1 [Compound 189] |  | Biological Activity (% inhibition at 10 μM) [1, 5]: 35%
16 | Cc1nc(N)nc(O)c1C=CCc1ccc(Cl)cc1 [Compound 26] | 97 | 
17 | CN1CCN(c2cc(C(F)(F)F)nc3ccc(F)cc23)CC1 [Compound 136] |  | Biological Activity (% inhibition at 10 μM) ([1]; Table 4 quinazolines, % reduction of hSOD-1 protein levels in HeLa cells following 72 h treatment with 10 μM compound): 64%
18 | Nc1nc(Nc2ccc(Cl)cc2)nc(C(Cl)Cl)n1 [Compound 193] |  | Biological Activity (% inhibition at 10 μM) [1, 5]: 29%
19 | CCc1nc(N)nc(N)c1-c1ccc(Cl)cc1 [Compound 6] | 50 | 
20 | Cc1ccc(NC(=O)c2cc(Cl)ccc2Cl)nc1 [Compound 199] |  | Biological Activity (% inhibition at 10 μM) [1, 4]: 94%
21 | Nc1ccc(Sc2cc(Cl)nc(N)n2)cc1 [Compound 92] | 81 | 
22 | CN(Cc1cnc2nc(N)nc(N)c2n1)c1ccc(C(=O)N[C@@H](CCC(=O)O)C(=O)O)cc1 [methotrexate, reference compound] |  | levels of SOD-1 protein in HeLa cells ([1]; HeLa cells, 72 hours, dose related, maximal by 10 μM): did not reduce

Row | Compound | Biological Activity (% inhibition at 10 μM) [1, 3] [%] | further results
23 | Cc1nc(N)nc(N)c1OCc1ccc(Cl)cc1Cl [Compound 110] | 38 | 
24 | CCc1nc(N)nc(N)c1-c1ccc(Cl)cc1 [pyrimethamine] |  | total protein levels (HeLa cells): unaffected; IC50 [2]: < 3000 nM
25 | N#Cc1c(Cl)nc(Cl)nc1Nc1ccccc1 [Compound 106] | 53 | 
26 | CSc1ncc(Oc2ccc(Cl)cc2)c(O)n1 [Compound 88] | 90 | 
27 | Cc1cc(-c2ccccc2)nc(N(C)C)n1 [Compound 1] | 33 | 
28 | Oc1ccnc(SCc2ccc(Cl)cc2Cl)n1 [Compound 99] | 66 | 
29 | Cc1ccccc1CCCc1c(C)nc(N)nc1N [Compound 118] | 31 | 
30 | CCc1c(O)ncnc1-c1ccc(C)cc1 [Compound 96] | 70 | 
31 | CSc1ccc(CCCc2c(C)nc(N)nc2N)cc1 [Compound 97] | 69 | 
32 | CSc1nc(-c2ccc(C)cc2)nc(C(Cl)Cl)n1 [Compound 168] |  | Biological Activity (% inhibition at 10 μM) [1, 5]: 75%
33 | CSc1nc(N)nc(-c2ccc(Cl)cc2)c1C#N [Compound 95] | 76 | 
34 | Cc1cc(C)nc(SCc2cccc(Br)c2)n1 [Compound 3] | 88 | 
35 | Nc1nc(CCl)nc(Nc2ccccc2)n1 [Compound 187] |  | Biological Activity (% inhibition at 10 μM) [1, 5]: 77%
36 | Nc1nc(N)nc(-c2cccc([N+](=O)[O-])c2)n1 [Compound 192] |  | Biological Activity (% inhibition at 10 μM) [1, 5]: 32%
37 | COc1cccc2oc(-c3ccccc3O)cc(=O)c12 [Compound 121] |  | Biological Activity (% inhibition at 10 μM) ([1]; Table 3, % reduction of hSOD-1 protein levels in HeLa cells, 72 h treatment, 10 μM): 71%
38 | CC(C)Nc1nc(Cl)nc(-c2ccccc2)n1 [Compound 186] |  | Biological Activity (% inhibition at 10 μM) [1, 5]: 82%
39 | N#Cc1ccc(CSc2nccc(O)n2)cc1 [Compound 105] | 53 | 
40 | Cc1ccc(Nc2nc(N)nc(Cl)n2)cc1 [Compound 164] |  | Biological Activity (% inhibition at 10 μM) [1, 5]: 43%
41 | Cc1nc(N)nc(N)c1CCCCc1ccc(O)cc1 [Compound 27] | 95 | 
42 | COc1ccc(Cc2c(O)nc(S)nc2O)cc1 [Compound 116] | 33 | 
43 | N#Cc1ccc(CSc2nc(O)cc(O)n2)cc1 [Compound 9] | 58 | 
44 | Cc1cccc(C(=O)Nc2ccc(Cl)cn2)c1 [Compound 201] |  | Biological Activity (% inhibition at 10 μM) [1, 4]: 39%

Row | Compound | Biological Activity (% inhibition at 10 μM) [1, 3] [%] | further results
45 | CC(Nc1nc(N)nc(Cl)n1)c1ccccc1 (stereo not drawn) [Compound 188] |  | Biological Activity (% inhibition at 10 μM) [1, 5]: 38%
46 | CCOc1ccc(-c2cnc(S)nc2N)cc1 [Compound 11] | 99 | 
47 | Cc1nc(N)nc(N)c1OCCc1ccc(Cl)cc1 [Compound 111] | 37 | 
48 | Cc1ccnc(NC(=O)c2cccc(Cl)c2)c1 [Compound 198] |  | Biological Activity (% inhibition at 10 μM) [1, 4]: 67%
49 | CN(C)c1cc(Cl)nc(SCc2ccccc2)n1 [Compound 2] | 77 | 
50 | Cc1ccc(C(=O)Nc2ccc(Cl)cn2)cc1C [Compound 200] |  | Biological Activity (% inhibition at 10 μM) [1, 4]: 39%
51 | CC(=O)c1c(C)nc(-c2ccc(Cl)cc2)nc1N [Compound 107] | 52 | 
52 | Cc1cccc(Oc2cnc(S)nc2O)c1 [Compound 7] | 94 | 
53 | Cc1cc(C)nc(Sc2ccc(N)cc2)n1 [Compound 94] | 77 | 
54 | CCSc1nc(-c2ccccc2)nc(C(Cl)Cl)n1 [Compound 166] |  | Biological Activity (% inhibition at 10 μM) [1, 5]: 98%
55 | Cc1cc(C)nc(NC(=N)Nc2cccc(Cl)c2)n1 [Compound 93] | 78 | 
56 | Nc1nc(N)nc(-c2ccccc2Cl)n1 [Compound 190] |  | Biological Activity (% inhibition at 10 μM) [1, 5]: 34%
57 | Nc1nc(S)ncc1-c1cccc(Cl)c1 [Compound 8] | 99 | 
58 | Nc1nc(SCC(=O)O)ncc1-c1ccc(Cl)cc1 [Compound 24] | 99 | 
59 | Cc1ccc(Nc2nc(Cl)nc(Cl)c2Cl)cc1 [Compound 4] | 96 | 
60 | Nc1nc(O)ncc1-c1ccc(Cl)cc1 [Compound 23] | 99 | 
61 | Cc1ccc(Oc2cnc(S)nc2O)cc1 [Compound 25] | 97 | 
62 | COc1ccc(CCCc2c(C)nc(N)nc2N)cc1 [Compound 100] | 65 | 
63 | Cc1ccc(Nc2nc(N)nc(CCl)n2)c(C)c1 [Compound 165] |  | Biological Activity (% inhibition at 10 μM) [1, 5]: 99%
64 | CCCOc1ccc(-c2cnc(S)nc2N)cc1 [Compound 10] | 99 | 
65 | COc1cc(N)nc(SCc2ccccc2Cl)n1 [Compound 113] | 36 | 
